Tests used:
Experiment in all cases: biochemical
Design in all cases: KINOMEscan competition binding panel (Eurofins DiscoverX), single concentration, % inhibition
Settings in all cases: read-out: 7 at 1 µM % inhibition
[1] = target: T1, ABL1(T315I)-nonphosphorylated (Homo sapiens, UniProt P00519, T315I)
T1 construct: nonphosphorylated
Method in brief: (§1)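 Kinome-wide profiling (KINOMEscan, >400 human kinases) was run at 1 µM compound.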

[2] = target: BRAF (Homo sapiens, UniProt P15056)
Method in brief: as §1

[3] = target: T2, CAMK1B (Homo sapiens, UniProt Q6P2M8)
T2 construct: gene PNCK
Method in brief: as §1

[4] = target: CAMK2D (Homo sapiens, UniProt Q13557)
Method in brief: as §1

[5] = target: T3, CTK (Homo sapiens, UniProt P42679)
T3 construct: gene MATK
Method in brief: as §1

[6] = target: EGFR(L747-T751del,Sins) (Homo sapiens, UniProt P00533, DEL747-750/T751S)
Method in brief: as §1

[7] = target: EPHB3 (Homo sapiens, UniProt P54753)
Method in brief: as §1

[8] = target: FES (Homo sapiens, UniProt P07332)
Method in brief: as §1

[9] = target: FLT3(D835H) (Homo sapiens, UniProt P36888, D835H)
Method in brief: as §1

[10] = target: FRK (Homo sapiens, UniProt P42685)
Method in brief: as §1

[11] = target: IRAK3 (Homo sapiens, UniProt Q9Y616)
Method in brief: as §1

[12] = target: IRAK4 (Homo sapiens, UniProt Q9NWZ3)
Method in brief: as §1

[13] = target: KIT(V559D,V654A) (Homo sapiens, UniProt P10721, V559D/V654A)
Method in brief: as §1

[14] = target: LRRK2 (Homo sapiens, UniProt Q5S007)
Method in brief: as §1

[15] = target: MYLK4 (Homo sapiens, UniProt Q86YV6)
Method in brief: as §1

[16] = target: T4, NDR1 (Homo sapiens, UniProt Q15208)
T4 construct: gene STK38
Method in brief: as §1

[17] = target: NEK7 (Homo sapiens, UniProt Q8TDX7)
Method in brief: as §1

[18] = target: T5, PCTK1 (Homo sapiens, UniProt Q00536)
T5 construct: gene CDK16
Method in brief: as §1

[19] = target: T6, PFTAIRE2 (Homo sapiens, UniProt Q96Q40)
T6 construct: gene CDK15
Method in brief: as §1

[20] = target: PIK3CB (Homo sapiens, UniProt P42338)
Method in brief: as §1

[21] = target: PIKFYVE (Homo sapiens, UniProt Q9Y2I7)
Method in brief: as §1

[22] = target: PLK1 (Homo sapiens, UniProt P53350)
Method in brief: as §1

[23] = target: TGFBR2 (Homo sapiens, UniProt P37173)
Method in brief: as §1

[24] = target: WNK1 (Homo sapiens, UniProt Q9H4A3)
Method in brief: as §1

Chain of NEK7 (Q8TDX7 whole entry): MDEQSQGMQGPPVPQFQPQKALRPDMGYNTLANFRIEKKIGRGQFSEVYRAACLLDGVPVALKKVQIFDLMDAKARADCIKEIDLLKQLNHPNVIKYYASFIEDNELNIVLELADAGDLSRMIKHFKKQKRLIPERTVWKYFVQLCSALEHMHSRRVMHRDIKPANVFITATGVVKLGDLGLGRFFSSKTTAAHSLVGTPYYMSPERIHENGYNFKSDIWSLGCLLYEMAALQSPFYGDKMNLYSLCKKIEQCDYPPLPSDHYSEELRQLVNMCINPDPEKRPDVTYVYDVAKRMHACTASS
T6 sequence (Q96Q40 whole entry): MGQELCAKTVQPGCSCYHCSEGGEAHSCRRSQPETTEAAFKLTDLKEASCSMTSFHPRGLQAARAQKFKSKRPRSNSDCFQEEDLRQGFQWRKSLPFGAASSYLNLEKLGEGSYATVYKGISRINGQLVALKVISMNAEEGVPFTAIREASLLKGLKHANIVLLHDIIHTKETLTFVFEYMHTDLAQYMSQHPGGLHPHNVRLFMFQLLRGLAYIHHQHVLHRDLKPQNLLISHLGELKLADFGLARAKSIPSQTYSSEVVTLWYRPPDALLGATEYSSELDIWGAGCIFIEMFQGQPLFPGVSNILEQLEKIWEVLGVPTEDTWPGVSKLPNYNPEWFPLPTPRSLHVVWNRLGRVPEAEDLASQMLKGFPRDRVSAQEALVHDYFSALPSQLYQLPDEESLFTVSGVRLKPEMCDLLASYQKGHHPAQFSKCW
T5 sequence (Q00536 whole entry): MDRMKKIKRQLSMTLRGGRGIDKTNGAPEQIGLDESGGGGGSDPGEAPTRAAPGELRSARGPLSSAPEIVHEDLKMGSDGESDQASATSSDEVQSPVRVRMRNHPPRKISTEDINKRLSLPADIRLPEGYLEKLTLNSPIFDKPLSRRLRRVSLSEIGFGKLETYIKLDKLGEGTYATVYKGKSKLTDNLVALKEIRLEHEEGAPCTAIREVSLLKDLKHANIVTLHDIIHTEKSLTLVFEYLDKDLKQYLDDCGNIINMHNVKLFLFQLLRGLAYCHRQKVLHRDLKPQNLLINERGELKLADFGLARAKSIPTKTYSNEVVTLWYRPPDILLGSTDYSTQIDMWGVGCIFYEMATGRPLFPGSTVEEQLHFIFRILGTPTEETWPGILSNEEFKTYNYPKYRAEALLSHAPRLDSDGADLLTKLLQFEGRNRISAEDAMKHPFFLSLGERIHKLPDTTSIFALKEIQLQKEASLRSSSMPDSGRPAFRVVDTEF
Chain of IRAK4 (Q9NWZ3 whole entry): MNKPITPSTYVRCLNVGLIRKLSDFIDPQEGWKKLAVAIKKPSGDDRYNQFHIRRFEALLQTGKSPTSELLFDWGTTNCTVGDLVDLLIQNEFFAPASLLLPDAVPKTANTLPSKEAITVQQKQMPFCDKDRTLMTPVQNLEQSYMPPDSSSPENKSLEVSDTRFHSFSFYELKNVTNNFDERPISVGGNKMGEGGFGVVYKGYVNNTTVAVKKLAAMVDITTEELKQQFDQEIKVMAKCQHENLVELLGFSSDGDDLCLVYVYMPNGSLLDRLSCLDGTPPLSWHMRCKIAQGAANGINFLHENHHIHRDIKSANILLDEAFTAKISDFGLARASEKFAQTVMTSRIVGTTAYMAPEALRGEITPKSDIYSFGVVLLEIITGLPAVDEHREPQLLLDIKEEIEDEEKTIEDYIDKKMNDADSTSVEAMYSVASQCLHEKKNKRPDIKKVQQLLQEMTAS
Chain of EPHB3 (P54753 whole entry): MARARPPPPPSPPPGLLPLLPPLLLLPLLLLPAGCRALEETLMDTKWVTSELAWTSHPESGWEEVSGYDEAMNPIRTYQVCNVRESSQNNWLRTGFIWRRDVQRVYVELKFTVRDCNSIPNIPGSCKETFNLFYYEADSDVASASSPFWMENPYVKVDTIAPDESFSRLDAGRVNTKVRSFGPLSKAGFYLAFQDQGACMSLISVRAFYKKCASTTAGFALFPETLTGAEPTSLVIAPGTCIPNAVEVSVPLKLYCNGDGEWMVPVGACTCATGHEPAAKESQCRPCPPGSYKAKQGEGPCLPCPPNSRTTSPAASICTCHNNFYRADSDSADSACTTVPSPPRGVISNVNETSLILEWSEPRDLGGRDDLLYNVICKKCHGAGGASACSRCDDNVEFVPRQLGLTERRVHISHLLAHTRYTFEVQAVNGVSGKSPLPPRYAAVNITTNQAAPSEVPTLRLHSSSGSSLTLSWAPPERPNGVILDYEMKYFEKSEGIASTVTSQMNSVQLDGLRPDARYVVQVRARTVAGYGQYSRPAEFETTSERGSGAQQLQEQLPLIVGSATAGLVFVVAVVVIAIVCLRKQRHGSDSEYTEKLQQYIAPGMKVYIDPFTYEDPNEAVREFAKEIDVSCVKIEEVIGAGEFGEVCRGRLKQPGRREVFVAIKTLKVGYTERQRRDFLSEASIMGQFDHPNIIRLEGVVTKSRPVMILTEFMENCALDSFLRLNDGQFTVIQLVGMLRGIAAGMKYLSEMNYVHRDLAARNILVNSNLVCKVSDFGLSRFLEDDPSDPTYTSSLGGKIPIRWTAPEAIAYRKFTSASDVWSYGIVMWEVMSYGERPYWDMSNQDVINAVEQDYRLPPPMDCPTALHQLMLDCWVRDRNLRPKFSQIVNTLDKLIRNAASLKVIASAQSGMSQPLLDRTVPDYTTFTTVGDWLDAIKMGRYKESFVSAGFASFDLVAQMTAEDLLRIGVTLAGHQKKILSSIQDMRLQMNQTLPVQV
Chain of MYLK4 (Q86YV6 whole entry): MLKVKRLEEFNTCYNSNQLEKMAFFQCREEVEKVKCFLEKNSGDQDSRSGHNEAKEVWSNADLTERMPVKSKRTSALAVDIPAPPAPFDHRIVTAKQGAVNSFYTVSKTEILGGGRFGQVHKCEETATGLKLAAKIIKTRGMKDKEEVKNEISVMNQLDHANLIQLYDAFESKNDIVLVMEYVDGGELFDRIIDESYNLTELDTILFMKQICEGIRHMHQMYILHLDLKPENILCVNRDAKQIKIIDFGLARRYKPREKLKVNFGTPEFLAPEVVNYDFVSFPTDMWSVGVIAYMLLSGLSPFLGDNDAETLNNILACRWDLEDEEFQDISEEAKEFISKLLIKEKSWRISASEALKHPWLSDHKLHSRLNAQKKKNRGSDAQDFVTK
Chain of KIT(V559D,V654A) (P10721 whole entry V559D/V654A): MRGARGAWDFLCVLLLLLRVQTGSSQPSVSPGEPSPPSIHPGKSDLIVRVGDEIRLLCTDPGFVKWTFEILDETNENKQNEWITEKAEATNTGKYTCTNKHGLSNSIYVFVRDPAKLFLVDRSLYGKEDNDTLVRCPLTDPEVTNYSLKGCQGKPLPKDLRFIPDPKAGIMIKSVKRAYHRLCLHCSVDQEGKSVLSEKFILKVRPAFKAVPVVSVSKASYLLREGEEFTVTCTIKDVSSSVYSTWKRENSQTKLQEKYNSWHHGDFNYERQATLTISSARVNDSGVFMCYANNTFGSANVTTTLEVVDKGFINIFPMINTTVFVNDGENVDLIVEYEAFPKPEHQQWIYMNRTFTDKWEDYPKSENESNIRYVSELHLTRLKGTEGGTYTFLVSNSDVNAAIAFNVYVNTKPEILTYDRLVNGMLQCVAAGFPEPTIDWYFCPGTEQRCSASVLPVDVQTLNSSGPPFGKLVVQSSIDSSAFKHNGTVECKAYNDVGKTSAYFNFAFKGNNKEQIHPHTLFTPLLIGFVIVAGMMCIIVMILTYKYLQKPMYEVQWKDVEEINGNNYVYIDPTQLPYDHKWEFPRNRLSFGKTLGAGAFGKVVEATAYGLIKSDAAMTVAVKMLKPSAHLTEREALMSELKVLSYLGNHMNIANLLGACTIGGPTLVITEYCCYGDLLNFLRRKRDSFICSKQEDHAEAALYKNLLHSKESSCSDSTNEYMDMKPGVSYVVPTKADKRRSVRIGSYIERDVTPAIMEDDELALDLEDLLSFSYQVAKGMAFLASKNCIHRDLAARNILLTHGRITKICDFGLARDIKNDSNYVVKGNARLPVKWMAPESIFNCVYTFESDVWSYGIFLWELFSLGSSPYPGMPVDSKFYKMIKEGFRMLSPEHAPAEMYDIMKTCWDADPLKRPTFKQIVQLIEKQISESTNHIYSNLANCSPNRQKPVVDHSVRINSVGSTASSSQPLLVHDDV
Chain of PLK1 (P53350 whole entry): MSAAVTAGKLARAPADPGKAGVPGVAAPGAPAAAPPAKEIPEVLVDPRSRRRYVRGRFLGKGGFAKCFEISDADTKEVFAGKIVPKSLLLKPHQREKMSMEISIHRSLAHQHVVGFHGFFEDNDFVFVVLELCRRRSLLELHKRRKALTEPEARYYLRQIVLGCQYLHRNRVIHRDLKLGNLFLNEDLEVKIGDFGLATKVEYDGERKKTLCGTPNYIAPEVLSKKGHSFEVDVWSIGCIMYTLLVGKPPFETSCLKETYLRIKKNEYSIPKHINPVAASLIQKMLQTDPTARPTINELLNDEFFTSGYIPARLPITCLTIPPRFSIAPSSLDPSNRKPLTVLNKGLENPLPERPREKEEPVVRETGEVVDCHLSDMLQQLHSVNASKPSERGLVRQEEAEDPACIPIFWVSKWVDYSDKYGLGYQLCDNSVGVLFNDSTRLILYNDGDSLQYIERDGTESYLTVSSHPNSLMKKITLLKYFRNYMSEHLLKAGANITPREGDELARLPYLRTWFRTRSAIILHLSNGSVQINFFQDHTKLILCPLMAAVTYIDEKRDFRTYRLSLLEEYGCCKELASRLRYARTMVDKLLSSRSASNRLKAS
T2 sequence (Q6P2M8 whole entry): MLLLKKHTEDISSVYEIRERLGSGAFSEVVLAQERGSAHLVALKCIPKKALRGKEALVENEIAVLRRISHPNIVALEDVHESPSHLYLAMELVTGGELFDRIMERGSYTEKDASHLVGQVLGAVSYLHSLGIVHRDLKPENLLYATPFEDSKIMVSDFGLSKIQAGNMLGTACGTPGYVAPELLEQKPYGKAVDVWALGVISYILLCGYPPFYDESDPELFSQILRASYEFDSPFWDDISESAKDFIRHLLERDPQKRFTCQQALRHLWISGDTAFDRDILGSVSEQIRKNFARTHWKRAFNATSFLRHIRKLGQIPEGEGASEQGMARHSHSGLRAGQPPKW

SMILES: CNS(=O)(=O)c1ccc(N(C)C)c(Nc2ncnc3cc(OC)c(OC)cc23)c1 [compound 7, 3-((6,7-dimethoxyquinazolin-4-yl)amino)-4-(dimethylamino)-N-methylbenzenesulfonamide]
- inhibition at 1 µM [1]: 33%
- inhibition at 1 µM [2]: 84%
- inhibition at 1 µM [3]: 46%
- inhibition at 1 µM [4]: 0%
- inhibition at 1 µM [5]: 1%
- inhibition at 1 µM [6]: 0%
- inhibition at 1 µM [7]: 0%
- inhibition at 1 µM [8]: 0%
- inhibition at 1 µM [9]: 20%
- inhibition at 1 µM [10]: 0%
- inhibition at 1 µM [11]: 0%
- inhibition at 1 µM [12]: 56%
- inhibition at 1 µM [13]: 0%
- inhibition at 1 µM [14]: 9%
- inhibition at 1 µM [15]: 0%
- inhibition at 1 µM [16]: 0%
- inhibition at 1 µM [17]: 0%
- inhibition at 1 µM [18]: 13%
- inhibition at 1 µM [19]: 0%
- inhibition at 1 µM [20]: 2%
- inhibition at 1 µM [21]: 7%
- inhibition at 1 µM [22]: 0%
- inhibition at 1 µM [23]: 0%
- inhibition at 1 µM [24]: 62%
